The record followed here is ChEMBL document CHEMBL1147406, “Polar substitutions in the benzenesulfonamide ring of celecoxib afford a potent 1,5-diarylpyrazole class of COX-2 inhibitors” (Bioorg Med Chem Lett, 2004).

Each structure is given as a SMILES string.

What is called IC50 is the concentration needed to halve the response being measured. Lower therefore signals higher potency. For orientation: inhibition means how much of the control response was suppressed. A low value points to little suppression.

The target in one assay is T1, Prostaglandin G/H synthase 1 (Ovis aries, UniProt P05979).
T1 sequence (P05979 whole entry): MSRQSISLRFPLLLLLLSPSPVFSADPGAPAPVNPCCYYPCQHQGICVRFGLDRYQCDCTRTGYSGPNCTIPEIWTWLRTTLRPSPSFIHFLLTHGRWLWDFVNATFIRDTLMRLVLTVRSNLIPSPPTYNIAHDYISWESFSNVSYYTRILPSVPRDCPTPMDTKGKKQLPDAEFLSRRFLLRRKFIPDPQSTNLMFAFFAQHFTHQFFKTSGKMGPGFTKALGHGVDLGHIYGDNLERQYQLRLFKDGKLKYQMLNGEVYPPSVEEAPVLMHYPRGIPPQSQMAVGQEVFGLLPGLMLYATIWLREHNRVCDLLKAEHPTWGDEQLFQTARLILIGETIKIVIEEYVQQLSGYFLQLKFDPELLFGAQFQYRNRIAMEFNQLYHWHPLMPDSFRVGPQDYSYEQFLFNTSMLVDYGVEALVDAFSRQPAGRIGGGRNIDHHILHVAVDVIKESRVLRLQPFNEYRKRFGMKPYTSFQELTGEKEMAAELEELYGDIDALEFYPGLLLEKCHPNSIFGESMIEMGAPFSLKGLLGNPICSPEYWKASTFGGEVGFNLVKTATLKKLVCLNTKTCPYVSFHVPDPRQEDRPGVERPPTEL
Conditions: not given
In turn, `COc1ccc(-c2cc(C(F)(F)F)nn2-c2ccc(S(N)(=O)=O)c(CNC(C)=O)c2)cc1` gave an IC50 of 100 µM.
The molecule `Cc1cccc(-c2cc(C(F)(F)F)nn2-c2ccc(S(N)(=O)=O)c(CO)c2)c1` gave an IC50 of 327 µM.
`Cc1ccc(-c2cc(C(F)(F)F)nn2-c2ccc(S(N)(=O)=O)c(CO)c2)cc1` registered an IC50 of 278 µM.
`NS(=O)(=O)c1ccc(-n2nc(C(F)(F)F)cc2-c2ccccc2)cc1CO`: half-maximal inhibition (IC50) required 1090 µM.
`COc1ccc(-c2cc(C(F)(F)F)nn2-c2ccc(S(C)(=O)=O)c(CO)c2)cc1` gave an IC50 of 300 µM.
As to `CCc1ccc(-c2cc(C(F)(F)F)nn2-c2ccc(S(N)(=O)=O)c(CO)c2)cc1`, the IC50 stood at 500 µM.
With `NS(=O)(=O)c1ccc(-n2nc(C(F)(F)F)cc2-c2ccc(Cl)cc2)cc1CO`, the midpoint of inhibition, the IC50, lay at 336 µM.
In turn, `COc1ccccc1-c1cc(C(F)(F)F)nn1-c1ccc(S(N)(=O)=O)c(CO)c1` registered an IC50 of 1150 µM.
The molecule `CSc1ccc(-c2cc(C(F)(F)F)nn2-c2ccc(S(N)(=O)=O)c(CO)c2)cc1` showed an IC50 of 59.7 µM.
In turn, `CC(=O)NCc1cc(-n2nc(C(F)(F)F)cc2-c2ccc(C)cc2)ccc1S(N)(=O)=O` showed an IC50 of 4.62 µM.
For `NS(=O)(=O)c1ccc(-n2nc(C(F)(F)F)cc2-c2ccccc2Cl)cc1CO`, the half-maximal inhibitory concentration (IC50) was 512 µM.
The molecule `CC(=O)NCc1cc(-n2nc(C(F)(F)F)cc2-c2ccc(Cl)cc2)ccc1S(N)(=O)=O` displayed an IC50 of 100 µM.
Turning to `CCSc1ccc(-c2cc(C(F)(F)F)nn2-c2ccc(S(N)(=O)=O)c(CO)c2)cc1`, the IC50 came to 300 µM.
In the case of `NS(=O)(=O)c1ccc(-n2nc(C(F)(F)F)cc2-c2ccc(F)cc2)cc1CO`, it took 500 µM to reach half-maximal inhibition (IC50).
Consider `NS(=O)(=O)c1ccc(-n2nc(C(F)(F)F)cc2-c2cccc(F)c2)cc1CO`, for which the IC50 amounted to 1000 µM.
Same read-out and setting: the same measure for `NS(=O)(=O)c1ccc(-n2nc(C(F)(F)F)cc2-c2ccc(Br)cc2)cc1CO`: 230 µM; for `CCOc1ccc(-c2cc(C(F)(F)F)nn2-c2ccc(S(N)(=O)=O)c(CO)c2)cc1`: 135 µM; for `COc1ccc(-c2cc(C(F)(F)F)nn2-c2ccc(S(N)(=O)=O)c(CO)c2)cc1`: 63 µM.
In turn, `NS(=O)(=O)c1ccc(-n2nc(C(F)(F)F)cc2-c2cccc(Cl)c2)cc1CO` registered an IC50 of 465 µM.
With `CCC(=O)OCc1cc(-n2nc(C(F)(F)F)cc2-c2ccc(C)cc2)ccc1S(N)(=O)=O`, the midpoint of inhibition, the IC50, lay at 34.6 µM.
The molecule `NS(=O)(=O)c1ccc(-n2nc(C(F)(F)F)cc2-c2ccccc2F)cc1CO` registered a 50% inhibitory concentration (IC50) of 500 µM.

For another assay, the target named is T2, Prostaglandin G/H synthase 1 (Ovis aries) (UniProt P05979).
T2 sequence (whole entry): T1 sequence (P05979 whole entry)
In words: Inhibitory activity against prostaglandin G/H synthase 1 from ram seminal vesicles at 100 uM concentration.
Conditions: not given
Molecule `CSc1ccc(-c2cc(C(F)(F)F)nn2-c2ccc(S(N)(=O)=O)c(C(C)O)c2)cc1` (stereo not given) returned an inhibition of 6%.
As for `COc1ccc(-c2cc(C(F)(F)F)nn2-c2ccc3c(c2)CCS3(=O)=O)cc1`, the inhibition turned out to be 86%.
`CSc1ccc(-c2cc(C(F)(F)F)nn2-c2ccc(S(C)(=O)=O)c(CO)c2)cc1` registered an inhibition of 0%.
For `COc1ccc(-c2cc(C(F)(F)F)nn2-c2ccc3c(c2)COS3(=O)=O)cc1`, the inhibition turned out to be 92%.
For `COc1ccc(-c2cc(C(F)(F)F)nn2-c2ccc(S(C)(=O)=O)c(C=O)c2)cc1`, the inhibition was found to be 92%.
Regarding `Cc1ccc(-c2cc(C(F)(F)F)nn2-c2ccc3c(c2)CCS3(=O)=O)cc1`, the inhibition turned out to be 90%.
In turn, `CS(=O)(=O)c1ccc(-c2cc(C(F)(F)F)nn2-c2ccc(S(N)(=O)=O)c(CO)c2)cc1` displayed an inhibition of 68%.
In turn, `COc1ccc(-c2cc(C(F)(F)F)nn2-c2ccc3c(c2)CNS3(=O)=O)cc1` displayed an inhibition of 85%.
`CC(C)Cc1ccc(-c2cc(C(F)(F)F)nn2-c2ccc(S(N)(=O)=O)c(CO)c2)cc1` returned an inhibition of 4%.

The next assay concerns the target T2, Prostaglandin G/H synthase 1 (Ovis aries). The assay is described as follows: Inhibitory activity of compound against prostaglandin G/H synthase 1 from ram seminal vesicles at 10 uM concentration.
Conditions: not given
`NS(=O)(=O)c1ccc(-n2nc(C(F)(F)F)cc2-c2ccc(O)cc2)cc1CO`: the inhibition was found to be 0%.

A further assay addresses T3, Prostaglandin G/H synthase 2 (Homo sapiens) (UniProt P35354).
T3 sequence (whole entry): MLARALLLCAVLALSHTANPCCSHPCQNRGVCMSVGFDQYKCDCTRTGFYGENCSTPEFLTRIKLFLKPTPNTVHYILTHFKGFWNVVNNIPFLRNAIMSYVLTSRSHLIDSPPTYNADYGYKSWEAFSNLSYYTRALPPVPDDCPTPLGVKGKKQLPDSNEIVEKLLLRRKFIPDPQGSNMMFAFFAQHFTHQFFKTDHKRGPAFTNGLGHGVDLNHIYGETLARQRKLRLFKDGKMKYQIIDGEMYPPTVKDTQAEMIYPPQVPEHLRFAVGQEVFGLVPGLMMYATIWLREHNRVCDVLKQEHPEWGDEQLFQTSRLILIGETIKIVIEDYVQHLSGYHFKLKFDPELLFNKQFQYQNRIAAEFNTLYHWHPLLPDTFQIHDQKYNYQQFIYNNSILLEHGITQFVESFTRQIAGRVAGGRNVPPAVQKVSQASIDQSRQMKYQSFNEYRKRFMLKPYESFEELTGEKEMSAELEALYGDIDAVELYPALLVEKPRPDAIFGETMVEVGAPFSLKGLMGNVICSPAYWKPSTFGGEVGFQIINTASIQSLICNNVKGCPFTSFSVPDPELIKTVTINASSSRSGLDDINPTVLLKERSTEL
The assay is described as follows: Inhibitory activity of compound against human cyclooxygenase-2 expressed in sf-9 cells infected with baculovirus at 10 uM concentration. As to conditions: Sf9.
Consider `CCOC(=O)OCc1cc(-n2nc(C(F)(F)F)cc2-c2ccc(C)cc2)ccc1S(C)(=O)=O`, for which the inhibition is 0%.
For `NS(=O)(=O)c1ccc(-n2nc(C(F)(F)F)cc2-c2ccc(O)cc2)cc1CO`, the inhibition was found to be 19%.
Take `COc1ccc(-c2cc(C(F)(F)F)nn2-c2ccc(S(C)(=O)=O)c(C=O)c2)cc1`: the inhibition worked out at 44%.

The next assay addresses T2, Prostaglandin G/H synthase 1 (Ovis aries). The assay is described as follows: Inhibitory activity of compound against Prostaglandin G/H synthase 1 from ram seminal vesicles at 10 uM concentration.
Conditions: not given
Molecule `CCOC(=O)OCc1cc(-n2nc(C(F)(F)F)cc2-c2ccc(C)cc2)ccc1S(C)(=O)=O` yielded an inhibition of 9%.

The target in a further assay is T4, Prostaglandin G/H synthase 2 (Homo sapiens, UniProt P35354).
T4 sequence (P35354 whole entry): T3 sequence (whole entry)
The assay is described as follows: Inhibitory activity against human Prostaglandin G/H synthase 2 expressed in sf-9 cells infected with baculovirus. The format is cell-based, Sf9.
Conditions: not given
`COc1ccc(-c2cc(C(F)(F)F)nn2-c2ccc(S(N)(=O)=O)c(CNC(C)=O)c2)cc1` gave an IC50 of 2.8 µM.
As for `Cc1cccc(-c2cc(C(F)(F)F)nn2-c2ccc(S(N)(=O)=O)c(CO)c2)c1`, 0.728 µM corresponded to half-maximal inhibition (IC50).
Turning to `Cc1ccc(-c2cc(C(F)(F)F)nn2-c2ccc(S(N)(=O)=O)c(CO)c2)cc1`, half-maximal inhibition (IC50) was put at 0.76 µM.
On the same count and under the same terms, the same measure for `NS(=O)(=O)c1ccc(-n2nc(C(F)(F)F)cc2-c2ccccc2)cc1CO`: 3.45 µM.
In the case of `COc1ccc(-c2cc(C(F)(F)F)nn2-c2ccc(S(C)(=O)=O)c(CO)c2)cc1`, the concentration for half-maximal inhibition (IC50) was 3.2 µM.
With `CCc1ccc(-c2cc(C(F)(F)F)nn2-c2ccc(S(N)(=O)=O)c(CO)c2)cc1`, the IC50 turned out to be 1.38 µM.
Consider `NS(=O)(=O)c1ccc(-n2nc(C(F)(F)F)cc2-c2ccc(Cl)cc2)cc1CO`, for which half-maximal inhibition (IC50) was put at 0.712 µM.
In the case of `COc1ccccc1-c1cc(C(F)(F)F)nn1-c1ccc(S(N)(=O)=O)c(CO)c1`, the IC50 was determined as 28.6 µM.
`CSc1ccc(-c2cc(C(F)(F)F)nn2-c2ccc(S(N)(=O)=O)c(CO)c2)cc1` had an IC50 of 0.235 µM.
Same read-out and setting: the same measure for `CC(=O)NCc1cc(-n2nc(C(F)(F)F)cc2-c2ccc(C)cc2)ccc1S(N)(=O)=O`: 6.85 µM.
In turn, `NS(=O)(=O)c1ccc(-n2nc(C(F)(F)F)cc2-c2ccccc2Cl)cc1CO` registered an IC50 of 6.3 µM.
For the molecule `CC(=O)NCc1cc(-n2nc(C(F)(F)F)cc2-c2ccc(Cl)cc2)ccc1S(N)(=O)=O`, 5 µM corresponded to half-maximal inhibition (IC50).
Consider `CCSc1ccc(-c2cc(C(F)(F)F)nn2-c2ccc(S(N)(=O)=O)c(CO)c2)cc1`, for which the half-maximal inhibitory concentration (IC50) is 51.2 µM.
Same read-out and setting: next, `NS(=O)(=O)c1ccc(-n2nc(C(F)(F)F)cc2-c2ccc(F)cc2)cc1CO`: 1.99 µM.
On the same count and under the same terms, next, `NS(=O)(=O)c1ccc(-n2nc(C(F)(F)F)cc2-c2cccc(F)c2)cc1CO`: 7.05 µM.
`NS(=O)(=O)c1ccc(-n2nc(C(F)(F)F)cc2-c2ccc(Br)cc2)cc1CO`: it took 0.592 µM to reach half-maximal inhibition (IC50).
As for `CCOc1ccc(-c2cc(C(F)(F)F)nn2-c2ccc(S(N)(=O)=O)c(CO)c2)cc1`, it took 0.901 µM to reach half-maximal inhibition (IC50).
`COc1ccc(-c2cc(C(F)(F)F)nn2-c2ccc(S(N)(=O)=O)c(CO)c2)cc1`: the IC50 is 0.365 µM.
Take `NS(=O)(=O)c1ccc(-n2nc(C(F)(F)F)cc2-c2cccc(Cl)c2)cc1CO`: the IC50 turned out to be 1.95 µM.
As for `CCC(=O)OCc1cc(-n2nc(C(F)(F)F)cc2-c2ccc(C)cc2)ccc1S(N)(=O)=O`, the IC50 is 0.57 µM.
Molecule `NS(=O)(=O)c1ccc(-n2nc(C(F)(F)F)cc2-c2ccccc2F)cc1CO` had an IC50 of 3.3 µM.

The target of the next assay is T3, Prostaglandin G/H synthase 2 (Homo sapiens). In words: Inhibitory activity of compound against human Prostaglandin G/H synthase 2 expressed in sf-9 cells infected with baculovirus at 100 uM concentration. As to conditions: Sf9.
As to `CSc1ccc(-c2cc(C(F)(F)F)nn2-c2ccc(S(N)(=O)=O)c(C(C)O)c2)cc1` (stereo not given), the inhibition was 50%.
Turning to `COc1ccc(-c2cc(C(F)(F)F)nn2-c2ccc3c(c2)CCS3(=O)=O)cc1`, the inhibition is 36%.
`CSc1ccc(-c2cc(C(F)(F)F)nn2-c2ccc(S(C)(=O)=O)c(CO)c2)cc1` had an inhibition of 45%.
Regarding `COc1ccc(-c2cc(C(F)(F)F)nn2-c2ccc3c(c2)COS3(=O)=O)cc1`, the inhibition was found to be 36%.
In turn, `COc1ccc(-c2cc(C(F)(F)F)nn2-c2ccc(S(C)(=O)=O)c(C=O)c2)cc1` had an inhibition of 100%.
`Cc1ccc(-c2cc(C(F)(F)F)nn2-c2ccc3c(c2)CCS3(=O)=O)cc1`: the inhibition was determined as 10%.
The same measure, in the same setting: next, `CS(=O)(=O)c1ccc(-c2cc(C(F)(F)F)nn2-c2ccc(S(N)(=O)=O)c(CO)c2)cc1`: 29%; `COc1ccc(-c2cc(C(F)(F)F)nn2-c2ccc3c(c2)CNS3(=O)=O)cc1`: 12%; `CC(C)Cc1ccc(-c2cc(C(F)(F)F)nn2-c2ccc(S(N)(=O)=O)c(CO)c2)cc1`: 14%.
